Experimental findings from patent US4800191A, “LHRH antagonists” (priority 1987, dated 1989) are described below.

“And” between values parts separate entries of the source, which are not always exact repeats. Equal values may be shown once. *1 amine or outer side, *2 acyl side, *3 side chain or, on linkers, in order; H or OH if unused. Where a SMILES comes first, the peptide text is derived from it. Side-chain parts run from the residue outwards. [ ]: non-standard residue; d: D form. dPhe(4-Cl) = N[C@H](Cc1ccc(Cl)cc1)C(=O)O; d2Nal = N[C@H](Cc1ccc2ccccc2c1)C(=O)O; d(hCit) = NC(=O)NCCCC[C@@H](N)C(=O)O; dCit = NC(=O)NCCC[C@@H](N)C(=O)O; dOrn = NCCC[C@@H](N)C(=O)O; CO = O=C([*:1])[*:2]

The subject of this series is rats. Description: edematogenic test of Schmidt, et al. Format: in vivo, rat. The settings on record: 1.5 mg/kg s.c. once a day on two consecutive days; for 1st Day FR (full responders: facial edema with edematous extremities), rats / 1st Day PR (partial responders: edema of the nasal and paranasal area), rats / 1st Day NR (no apparent reaction), rats: day 1; for 2nd Day FR (full responders: facial edema with edematous extremities), rats / 2nd Day NR (no apparent reaction), rats / 2nd Day PR (partial responders: edema of the nasal and paranasal area), rats: day 2; for 1st Day NR (no apparent reaction), rats: observed five hours each day. The protocol: In the edematogenic test of Schmidt, et al. (Contraception, 29, 283-289, 1984), however, a marked difference can be found between the control peptides and the peptides of the present invention. The control peptides produce edema of the face and extremities when administered subcutaneously in rats at doses of 0.75 or 1.25 mg/kg. No such reaction can be observed with the peptides of the present invention when given at a subcutaneous dose of 1.5 mg/kg.
In the tests as run the rats were assigned to three groups of five rats per group per compound tested. Comparison with made with a known prior art compound designated ORG 30276 namely (N-Ac-D-p-Cl-Phe^1,2, D-Trp^3, D-Arg^6, D-Ala^10)-LHRH. The groups were injected subcuntaneously once a day on two consecutive days with the LHRH antagonists at a dose level of 1.5 mg/kg. One control group was injected with diluent only. The rats were observed during five hours each day. Reactions of the rats were classified as follows: NR no apparent reaction, PR partial responders: edema of the nasal and paranasal area, FR full responders: facial edema with edematous extremities.

Take `CCNC(=O)NCCC[C@@H](NC(=O)[C@H](Cc1ccc(O)cc1)NC(=O)[C@H](CO)NC(=O)[C@@H](Cc1c[nH]c2ccccc12)NC(=O)[C@@H](Cc1ccc(Cl)cc1)NC(=O)[C@@H](Cc1ccc2ccccc2c1)NC(C)=O)C(=O)N[C@@H](CC(C)C)C(=O)N[C@@H](CCCNC(=N)N)C(=O)N1CCC[C@H]1C(=O)N[C@H](C)C(N)=O` [EX IV, Ac-D-Nal(2)-D-Phe(4-Cl)-D-Trp-Ser-Tyr-D-Cit(Et)-Leu-Arg-Pro-D-Ala-NH2] (Ac-[d2Nal][dPhe(4-Cl)][dW]SY[dOrn]([CO-NHEt])LRP[dA]-NH2): the “1st Day FR (full responders: facial edema with edematous extremities), rats” value (“1st Day FR” for short) came to 0; the “1st Day PR (partial responders: edema of the nasal and paranasal area), rats” value (“1st Day PR” for short) is reported as 0; the “2nd Day FR (full responders: facial edema with edematous extremities), rats” value (“2nd Day FR” for short) is 0; the “2nd Day NR (no apparent reaction), rats” value came out at 9. Further, the “2nd Day PR (partial responders: edema of the nasal and paranasal area), rats” value (shortened to “2nd Day PR”) was found to be 0; the “1st Day NR (no apparent reaction), rats” value turned out to be 9.

Turning to “Ac-[d2Nal][dPhe(4-Cl)][dW]SY[d(hCit)]RP[dA]-NH2 [EX I]”, the “1st Day FR” value is on record as 0; the “1st Day PR” value was 0; the “2nd Day FR” value was 0; the “2nd Day NR (no apparent reaction), rats” value turned out to be 8. In addition, the “2nd Day PR” value stood at 0; the “1st Day NR (no apparent reaction), rats” value was 8.

On to `CC(=O)N[C@H](Cc1ccc2ccccc2c1)C(=O)N[C@H](Cc1ccc(Cl)cc1)C(=O)N[C@H](Cc1c[nH]c2ccccc12)C(=O)N[C@@H](CO)C(=O)N[C@@H](Cc1ccc(O)cc1)C(=O)N[C@H](CCCNC(N)=O)C(=O)N[C@@H](CC(C)C)C(=O)N[C@@H](CCCNC(=N)N)C(=O)N1CCC[C@H]1C(=O)N[C@H](C)C(N)=O` [EX III, Ac-D-Nal(2)-D-Phe(4-Cl)-D-Trp-Ser-Tyr-D-Cit-Leu-Arg-Pro-D-Ala-NH^2] (Ac-[d2Nal][dPhe(4-Cl)][dW]SY[dCit]LRP[dA]-NH2), for which the “1st Day FR” value is recorded as 0; the “1st Day PR” value worked out at 0; the “1st Day NR (no apparent reaction), rats” value is given as 8.

For `CC(=O)N[C@H](Cc1ccc(Cl)cc1)C(=O)N[C@H](Cc1ccc(Cl)cc1)C(=O)N[C@H](Cc1c[nH]c2ccccc12)C(=O)N[C@@H](CO)C(=O)N[C@@H](Cc1ccc(O)cc1)C(=O)N[C@H](CCCCNC(N)=O)C(=O)N[C@@H](CC(C)C)C(=O)N[C@@H](CCCNC(=N)N)C(=O)N1CCC[C@H]1C(=O)N[C@H](C)C(N)=O` [EX V, Ac-D-Phe(4-Cl)-D-Phe(4-Cl)-D-Trp-Ser-Tyr-D-Hci-Leu-Arg-Pro-D-Ala-NH2] (Ac-[dPhe(4-Cl)][dPhe(4-Cl)][dW]SY[d(hCit)]LRP[dA]-NH2), the “1st Day FR” value is recorded as 0; the “1st Day PR” value is listed as 0; the “2nd Day FR” value came out at 0; the “2nd Day NR (no apparent reaction), rats” value is recorded as 8. For the same compound, the “2nd Day PR” value is 1; the “1st Day NR (no apparent reaction), rats” value is 9.

Take `CC(=O)N[C@H](Cc1ccc(Cl)cc1)C(=O)N[C@H](Cc1ccc(Cl)cc1)C(=O)N[C@H](Cc1c[nH]c2ccccc12)C(=O)N[C@@H](CO)C(=O)N[C@@H](Cc1ccc(O)cc1)C(=O)N[C@H](CCCNC(=N)N)C(=O)N[C@@H](CC(C)C)C(=O)N[C@@H](CCCNC(=N)N)C(=O)N1CCC[C@H]1C(=O)N[C@H](C)C(N)=O` [ORG 30276, (N-Ac-D-p-Cl-Phe^1,2, D-Trp^3, D-Arg^6, D-Ala^10)-LHRH, reference compound] (Ac-[dPhe(4-Cl)][dPhe(4-Cl)][dW]SY[dR]LRP[dA]-NH2): the “1st Day FR” value worked out at 0; the “1st Day PR” value was 5 and 3; the “2nd Day FR” value is 6 and 3; the “2nd Day PR” value was 2 and 1.
